Data: PubChem BioAssay (NCI)
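Test compounds were applied to cells in 96-well plates for 48 hours at 5 doses. GI50 marks 50% less growth. TGI: concentration producing complete growth inhibition.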

How the values were obtained:
Test in all cases: DTP human tumour cell line panel, 48 h
SK-OV-3 ovarian = test system: SK-OV-3 ovarian
OVCAR-4 ovarian = test system: OVCAR-4 ovarian
IGROV1 ovarian = test system: IGROV1 ovarian
HOP-92 NSCLC = test system: HOP-92 NSCLC
SR leukemia = test system: SR leukemia
MDA-MB-231 breast = test system: MDA-MB-231 breast
HT29 colon = test system: HT29 colon
SF-268 CNS = test system: SF-268 CNS
UO-31 renal = test system: UO-31 renal
BT-549 breast = test system: BT-549 breast
NCI-H460 lung = test system: NCI-H460 lung
RPMI-8226 leukemia = test system: RPMI-8226 leukemia
T-47D breast = test system: T-47D breast
OVCAR-3 ovarian = test system: OVCAR-3 ovarian
MOLT-4 leukemia = test system: MOLT-4 leukemia
CAKI-1 renal = test system: CAKI-1 renal
HCT-15 colon = test system: HCT-15 colon
UACC-257 melanoma = test system: UACC-257 melanoma
HCC-2998 colon = test system: HCC-2998 colon
A549 NSCLC = test system: A549 NSCLC
NCI-H23 lung = test system: NCI-H23 lung
NCI/ADR-RES ovarian = test system: NCI/ADR-RES ovarian
SK-MEL-2 melanoma = test system: SK-MEL-2 melanoma
786-0 renal = test system: 786-0 renal
MCF7 breast = test system: MCF7 breast
HL-60(TB) leukemia = test system: HL-60(TB) leukemia
RXF 393 renal = test system: RXF 393 renal
HCT-116 colon = test system: HCT-116 colon
LOX IMVI melanoma = test system: LOX IMVI melanoma
EKVX NSCLC = test system: EKVX NSCLC
ACHN renal = test system: ACHN renal
M14 melanoma = test system: M14 melanoma
SK-MEL-28 melanoma = test system: SK-MEL-28 melanoma
A498 renal = test system: A498 renal
MALME-3M melanoma = test system: MALME-3M melanoma
UACC-62 melanoma = test system: UACC-62 melanoma
CCRF-CEM leukemia = test system: CCRF-CEM leukemia
SK-MEL-5 melanoma = test system: SK-MEL-5 melanoma
SW-620 colon = test system: SW-620 colon
SN12C renal = test system: SN12C renal
SNB-75 CNS = test system: SNB-75 CNS
MDA-MB-435 = test system: MDA-MB-435
NCI-H522 lung = test system: NCI-H522 lung
SF-295 CNS = test system: SF-295 CNS
KM12 colon = test system: KM12 colon
HS 578T breast = test system: HS 578T breast
COLO 205 colon = test system: COLO 205 colon
K-562 leukemia = test system: K-562 leukemia
TK-10 renal = test system: TK-10 renal
SNB-19 CNS = test system: SNB-19 CNS
OVCAR-8 ovarian = test system: OVCAR-8 ovarian
U251 CNS = test system: U251 CNS
OVCAR-5 ovarian = test system: OVCAR-5 ovarian
NCI-H226 lung = test system: NCI-H226 lung
HOP-62 NSCLC = test system: HOP-62 NSCLC
DU-145 prostate = test system: DU-145 prostate
SF-539 CNS = test system: SF-539 CNS
PC-3 prostate = test system: PC-3 prostate

Compound: COc1cc(C(=O)/C=C/c2c(C)n([O-])c3ccc(C(F)(F)F)cc3[n+]2=O)cc(OC)c1OC
- GI50 (SK-OV-3 ovarian): 27.1 µM
- TGI (SK-OV-3 ovarian): > 100 µM
- GI50 (OVCAR-4 ovarian): 7.1 µM
- TGI (OVCAR-4 ovarian): > 100 µM
- GI50 (IGROV1 ovarian): 7.54 µM
- TGI (IGROV1 ovarian): 48.4 µM
- GI50 (HOP-92 NSCLC): 3.04 µM
- TGI (HOP-92 NSCLC): 21.3 µM
- GI50 (SR leukemia): 2.67 µM
- TGI (SR leukemia): > 100 µM
- GI50 (MDA-MB-231 breast): 8.54 µM
- TGI (MDA-MB-231 breast): > 79.3 µM
- GI50 (HT29 colon): 1.69 µM
- TGI (HT29 colon): 3.99 µM
- GI50 (SF-268 CNS): 12.8 µM
- TGI (SF-268 CNS): 37.4 µM
- GI50 (UO-31 renal): 1.45 µM
- TGI (UO-31 renal): 3.51 µM
- GI50 (BT-549 breast): 8.34 µM
- TGI (BT-549 breast): 25.6 µM
- GI50 (NCI-H460 lung): 10.7 µM
- TGI (NCI-H460 lung): 29.1 µM
- GI50 (RPMI-8226 leukemia): 5.23 µM
- TGI (RPMI-8226 leukemia): 48.9 µM
- GI50 (T-47D breast): 2.15 µM
- TGI (T-47D breast): 7.83 µM
- GI50 (OVCAR-3 ovarian): 1.37 µM
- TGI (OVCAR-3 ovarian): 3.07 µM
- GI50 (MOLT-4 leukemia): 1.75 µM
- TGI (MOLT-4 leukemia): 5.11 µM
- GI50 (CAKI-1 renal): 3.32 µM
- TGI (CAKI-1 renal): > 38.1 µM
- GI50 (HCT-15 colon): 3.55 µM
- TGI (HCT-15 colon): 24.2 µM
- GI50 (UACC-257 melanoma): 1.78 µM
- TGI (UACC-257 melanoma): 3.94 µM
- GI50 (HCC-2998 colon): 15.5 µM
- TGI (HCC-2998 colon): 35.7 µM
- GI50 (A549 NSCLC): 19.8 µM
- TGI (A549 NSCLC): > 93.3 µM
- GI50 (NCI-H23 lung): 3.8 µM
- TGI (NCI-H23 lung): 15.1 µM
- GI50 (NCI/ADR-RES ovarian): 3.54 µM
- TGI (NCI/ADR-RES ovarian): 97.7 µM
- GI50 (SK-MEL-2 melanoma): 4 µM
- TGI (SK-MEL-2 melanoma): 13.5 µM
- GI50 (786-0 renal): 1.96 µM
- TGI (786-0 renal): 4.31 µM
- GI50 (MCF7 breast): 4.26 µM
- TGI (MCF7 breast): 17.3 µM
- GI50 (HL-60(TB) leukemia): 2.92 µM
- TGI (HL-60(TB) leukemia): 7.89 µM
- GI50 (RXF 393 renal): 1.44 µM
- TGI (RXF 393 renal): 2.86 µM
- GI50 (HCT-116 colon): 0.83 µM
- TGI (HCT-116 colon): 2.51 µM
- GI50 (LOX IMVI melanoma): 0.77 µM
- TGI (LOX IMVI melanoma): 2.66 µM
- GI50 (EKVX NSCLC): 21.4 µM
- TGI (EKVX NSCLC): > 100 µM
- GI50 (ACHN renal): 1.49 µM
- TGI (ACHN renal): 3.82 µM
- GI50 (M14 melanoma): 2.42 µM
- TGI (M14 melanoma): 8.46 µM
- GI50 (SK-MEL-28 melanoma): 7.62 µM
- TGI (SK-MEL-28 melanoma): 23.6 µM
- GI50 (A498 renal): 14.5 µM
- TGI (A498 renal): 51.7 µM
- GI50 (MALME-3M melanoma): 1.74 µM
- TGI (MALME-3M melanoma): 4.19 µM
- GI50 (UACC-62 melanoma): 3.62 µM
- TGI (UACC-62 melanoma): 13.8 µM
- GI50 (CCRF-CEM leukemia): 0.564 µM
- TGI (CCRF-CEM leukemia): > 100 µM
- GI50 (SK-MEL-5 melanoma): 17.6 µM
- TGI (SK-MEL-5 melanoma): > 57.3 µM
- GI50 (SW-620 colon): 0.68 µM
- TGI (SW-620 colon): 2.04 µM
- GI50 (SN12C renal): 6.89 µM
- TGI (SN12C renal): > 100 µM
- GI50 (SNB-75 CNS): 10.9 µM
- TGI (SNB-75 CNS): 24.6 µM
- GI50 (MDA-MB-435): 3.15 µM
- TGI (MDA-MB-435): 15.8 µM
- GI50 (NCI-H522 lung): 0.232 µM
- TGI (NCI-H522 lung): 0.784 µM
- GI50 (SF-295 CNS): 26.2 µM
- TGI (SF-295 CNS): > 90.7 µM
- GI50 (KM12 colon): 13.5 µM
- TGI (KM12 colon): 34.3 µM
- GI50 (HS 578T breast): 7.55 µM
- TGI (HS 578T breast): > 77.8 µM
- GI50 (COLO 205 colon): 1.43 µM
- TGI (COLO 205 colon): 2.88 µM
- GI50 (K-562 leukemia): 1.65 µM
- TGI (K-562 leukemia): 5.85 µM
- GI50 (TK-10 renal): 1.41 µM
- TGI (TK-10 renal): 2.82 µM
- GI50 (SNB-19 CNS): 36.1 µM
- TGI (SNB-19 CNS): > 100 µM
- GI50 (OVCAR-8 ovarian): 2.99 µM
- TGI (OVCAR-8 ovarian): > 31.1 µM
- GI50 (U251 CNS): 8.83 µM
- TGI (U251 CNS): 24.1 µM
- GI50 (OVCAR-5 ovarian): 15.2 µM
- TGI (OVCAR-5 ovarian): > 83.4 µM
- GI50 (NCI-H226 lung): 15.1 µM
- TGI (NCI-H226 lung): > 57.7 µM
- GI50 (HOP-62 NSCLC): 25.2 µM
- TGI (HOP-62 NSCLC): > 100 µM
- GI50 (DU-145 prostate): 4.11 µM
- TGI (DU-145 prostate): 14.3 µM
- GI50 (SF-539 CNS): 3.7 µM
- TGI (SF-539 CNS): 15 µM
- GI50 (PC-3 prostate): 6.41 µM
- TGI (PC-3 prostate): > 100 µM
